In patent US20170035793A1, “Use of P2X Purinergic Receptor Agonists to Enhance Insulin Secretion In Pancreatic Beta Cells” (priority 2010, published 2017):
“Also recorded” adds a separate entry of the source.

Key:
pig islets [1] = assay: Glucagon secretion from perifused pig islets; assay type: cell-based
Excerpt: (§1) Islet Isolation. Islets were isolated as previously described (57). Monkey islets were isolated from cynomolgus monkeys (Macacca fascicularis) >4 years of age at the time of pancreas procurement, as previously described (58). Pig pancreata were procured from the local slaughterhouse. Mice (C57BL/6) and rat (Lewis rat; Harlan) islets were isolated using a rodent-islet isolation technique (59). All animal protocols were approved by the University of Miami Care and Use Committee. Human pancreatic islets were obtained from the Human Islet Cell Processing Facility at the Diabetes Research Institute, University of Miami Miller School of Medicine or from the Islet Cell Resource basic science islet distribution program, Islet Cell Resource Centers (ICRs) Consortium, Division of Clinical Research, National Center for Research Resources, National Institutes of Health. Human islets were dissociated into single cells using enzyme-free cell dissociation buffer (Invitrogen). […]
(§2) Insulin and Glucagon Secretion. Insulin and glucagon secretion were measured as previously described (8, 36). […] Hormone release in the perifusate was determined with the human or mouse Endocrine LINCOplex Kit following manufacturer's instructions (Lincoresearch). […]

mouse islets = assay: Glucagon secretion from perifused mouse islets; assay type: cell-based, Mice (C57BL/6)
Excerpt: as §1, §2

human islets = assay: ATP-induced (or α,β meATP-induced) insulin secretion in human islets with antagonists or blockers; assay type: cell-based; details: nominal 0 Ca2+ (+1 mM EGTA), ATP 10 μM, α,β meATP 100 μM
Excerpt: (§3) Islet Isolation. Islets were isolated as previously described (57). Monkey islets were isolated from cynomolgus monkeys (Macacca fascicularis) >4 years of age at the time of pancreas procurement, as previously described (58). Pig pancreata were procured from the local slaughterhouse. Mice (C57BL/6) and rat (Lewis rat; Harlan) islets were isolated using a rodent-islet isolation technique (59). All animal protocols were approved by the University of Miami Care and Use Committee. Human pancreatic islets were obtained from the Human Islet Cell Processing Facility at the Diabetes Research Institute, University of Miami Miller School of Medicine or from the Islet Cell Resource basic science islet distribution program, Islet Cell Resource Centers (ICRs) Consortium, Division of Clinical Research, National Center for Research Resources, National Institutes of Health. Human islets were dissociated into single cells using enzyme-free cell dissociation buffer (Invitrogen). Islets and islets cells from Q:1 all species were cultured identically (37° C. and 5% CO2) inCMRL Q:2 medium-1066 (Invitrogen), niacinamide (10 mM; Sigma), ITS (BD Biosciences), Zn2SO4 (15 μM, Sigma), GlutaMAX (2 mM; Invitrogen), Hepes (25 mM; Sigma), FBS (10%; Invitrogen), and penicillinstreptomycin (100 IU/mL-100 μg/mL; Invitrogen).
Insulin and Glucagon Secretion. Insulin and glucagon secretion were measured as previously described (8, 36). A high-capacity automated perifusion system was developed to dynamically measure hormone secretion from pancreatic islets. A low pulsatility peristaltic pump pushed Hepes-buffered solution (125 mM NaCl, 5.9 mM KCl, 2.56 mM CaCl2, 1 mM MgCl2, 25 mM Hepes, and 0.1% BSA, pH 7.4 at a perifusion rate of 100 μL/min) through a column containing 100 pancreatic islets immobilized in Bio-Gel P-4 Gel (BioRad). Except when otherwise stated, glucose concentration was adjusted to 3 mM for all experiments. Stimuli were applied with the perifusion buffer. The perifusate was collected in an automatic fraction collector designed for a 96-well plate format. The columns containing the islets and the perifusion solutions were kept at 37° C., and the perifusate in the collecting plate was kept at <4° C. Perifusates were collected every 1 min. Hormone release in the perifusate was determined with the human or mouse Endocrine LINCOplex Kit following manufacturer's instructions (Lincoresearch). Human islet preparations varied considerably in their quality. Thus, the magnitudes of the responses to different stimuli were compared with the same recording or using recordings from the same preparation.

human β cells = assay: [Ca2+]i imaging (Fura-2) of glucose-responsive human islet cells; assay type: cell-based; details: ATPγS 50 μM
Excerpt: as §3
[Ca^2+]i; Imaging. [Ca^2+]i imaging was performed as previously described (8, 36). Dispersed islet cells were immersed in Hepes-buffered solution (125 mMNaCl, 5.9 mMKCl, 2.56 mMCaCl2, 1 mMMgCl2, 25 mMHepes, and 0.1% BSA, pH7.4). Glucose was added to give a final concentration of 3 mM. Islets or dispersed islet cells were incubated in Fura-2 AM (2 μM; 1 h) and placed in a closed small volume imaging chamber (Warner Instruments). Stimuli were applied with the bathing solution. Islets loaded with Fura-2 were excited alternatively at 340 and 380 nm with a monochromator light source (Cairn Research Optoscan Monochromator; Cairn Research Ltd). Images were acquired with a Hamamatsu camera (Hamamatsu) attached to a Zeiss Axiovert 200 microscope (Carl Zeiss). Changes in the 340/380 fluorescence emission ratio over time were analyzed in individual islets and dispersed cells using Kinetic Imaging AQM Advance software (Kinetic Imaging). Peak changes in the fluorescence ratio constituted the response amplitude. Beta cells were distinguished from other endocrine cells by their [Ca^2+]i, responses to high glucose concentrations, and alpha cells were identified by their [Ca^2+]i responses to kainate (glutamate receptor agonist) (8, 36).

rat islets = assay: Insulin secretion from perifused rat islets; assay type: cell-based, rat (Lewis rat); details: 1-1,000 μM
Excerpt: as §1, §2

pig islets [2] = assay: Insulin secretion from perifused pig islets; assay type: cell-based; details: 1-1,000 μM
Excerpt: as §1, §2

SMILES: Nc1ncnc2c1ncn2[C@@H]1O[C@H](COP(=O)(O)OP(=O)(O)OP(=O)(O)O)[C@@H](O)[C@H]1O [ATP]
- glucagon response of pig islets (pig islets [1]): difficult to discern
- glucagon response of mouse islets (mouse islets): difficult to discern; also recorded: stimulated small increases in glucagon secretion
- insulin responses to the agonist in the nominal absence of extracellular Ca2+ (human islets): reduced; also recorded: strongly diminished
- [Ca2+]i response of β cells to the agonist (human β cells; human β cells identified by response to high glucose (11 or 16 mM), recorded at 3 mM glucose, BzATP 50 μM): elicited repeatable [Ca^2+]i responses; also recorded: elicited large insulin and [Ca^2+]i, responses
- [Ca2+]i responses to the agonist in the nominal absence of extracellular Ca2+ (human β cells; human β cells, nominal 0 Ca2+ (+1 mM EGTA)): reduced [Ca^2+]i responses to ATP
- insulin response of rat islets (rat islets): No responses to ATP were observed; also recorded: neither ATP nor any of the other purinergic agonists tested stimulated insulin release; also recorded: only high concentrations of ATP (1 mM) induced small increases in insulin release
- insulin response of pig islets (pig islets [2]): No responses to ATP were observed; also recorded: neither ATP nor any of the other purinergic agonists tested stimulated insulin release
